Reference: US6727076B2 (priority 1995, dated 2004)
In brackets after ≈: the same amount, converted by molar mass. Like-named read-outs stand apart in the source and are kept apart here.

Columns and labels:
[1] = tested on: E. coli strain 14445 (MG1655 himA); assay type: cell-based
E. coli MG1655 = assay type: cell-based
E. coli = assay type: cell-based
[2] = tested on: E. coli strain 14444 (MG1655 xylA); assay type: cell-based
T. harzianum DAOM 190830 = assay type: cell-based, Trichoderma harzianum
[3] = tested on: Staphylococcus aureus (ATCC #29213); assay: microbe, parasite or virus in culture; assay type: cell-based
[4] = tested on: Escherichia coli (ATCC#25922); assay: microbe, parasite or virus in culture; assay type: cell-based
S. typhimurium hisF645 = assay type: cell-based, Salmonella typhimurium
[5] = tested on: E. coli 287 (ATCC #11775); assay type: cell-based
[6] = Staphylococcus aureus, ATCC29213, 18 h
[7] = Escherichia coli, ATCC25922, 18 h

SMILES | suitability as nitrogen source (growth, purple color) (E. coli MG1655) | use as carbon source (E. coli) | carbon source utilization result (T. harzianum DAOM 190830) | MIC [3, 6] [µg/mL] | MIC [4, 7] [µg/mL] | further results
C[C@@H](O)[C@H](N)C(=O)O [L-threonine] | not suitable | can use |  |  |  | carbon source utilization, in words [1]: negative; carbon source utilization, in words [2]: negative
O=C(O)[C@@H]1CCCN1 [L-proline] | positive | can use | positive |  |  | carbon source utilization, in words [2]: negative
CN(C)[C@@H]1C(O)=C(C(N)=O)C(=O)[C@@]2(O)C(O)=C3C(=O)c4c(O)cccc4[C@@](C)(O)[C@H]3C[C@@H]12 [Tetracycline, tetracycline] |  |  |  | 0.25 to 2 (≈ 0.563 to 4.5 µM) | 0.5 to 1 (≈ 1.13 to 2.25 µM) | MIC [3]: 0.25 to 1 µg/mL
NC[C@H]1O[C@H](O[C@H]2[C@H](O)[C@@H](O[C@H]3O[C@H](CO)[C@@H](O)[C@H](N)[C@H]3O)[C@H](N)C[C@@H]2N)[C@H](O)[C@@H](O)[C@@H]1O [Kanamycin, kanamycin] |  |  |  | 16 to 32 (≈ 33 to 66 µM) | 16 to 32 (≈ 33 to 66 µM) | MIC [4]: 8 to 16 µg/mL
CC1(C)S[C@@H]2[C@H](NC(=O)[C@H](N)c3ccccc3)C(=O)N2[C@H]1C(=O)O [Ampicillin, ampicillin] |  |  |  | 1 to 4 (≈ 2.86 to 11.4 µM) | 1 to 2 (≈ 2.86 to 5.72 µM) | MIC [3]: 1 to 2 µg/mL; MIC [4]: 2 to 4 µg/mL
N[C@@H](Cc1c[nH]cn1)C(=O)O [L-histidine] | not suitable |  |  |  |  | growth stimulation by supplement (well color) (S. typhimurium hisF645): turned purple; carbon source utilization result [5]: negative
N[C@@H](CCC(=O)O)C(=O)O [L-glutamic acid] | positive | can use | positive |  |  | carbon source utilization, in words [1]: negative
C[C@H](N)C(=O)O [L-alanine] | not suitable | can use | positive |  |  | carbon source utilization result [5]: positive
